Consider 4 compounds from patent US20240165281A1, “DUAL MODE RADIOTRACER AND THERAPEUTICS” (Technische Universität München, priority 2021, published 2024).

For data set [1] the following is noted: Wängler et al. 2010; cited from earlier work.
The nature of data set [2]: Octanol-water partition coefficient (log D7.4). In kind it is physicochemical. As to conditions: PBS pH 7.4 / n-octanol, 177Lu-labelled. How it is done: Octanol-Water Partition Coefficient (log D7.4)
Approximately 1 MBq of the labelled tracer was dissolved in 1 mL of a 1:1 mixture (v/v) of PBS (pH 7.4) and n-octanol in a reaction vial (1.5 mL). After vigorous mixing of the suspension for 3 minutes at room temperature, the vial was centrifuged at 15000 g for 3 minutes (Biofuge 15, Heraus Sepatech, Osterode, Germany) and 100 μL aliquots of both layers were measured in a gamma counter. The experiment was repeated at least six times.

For data set [3], the target named is T1, PSMA (Homo sapiens, UniProt Q04609).
T1 construct: PSMA-positive LNCAP cells (300265; Cell Lines Service, Eppelheim, Germany); host or cells: LNCaP cells
T1 sequence (Q04609 whole entry): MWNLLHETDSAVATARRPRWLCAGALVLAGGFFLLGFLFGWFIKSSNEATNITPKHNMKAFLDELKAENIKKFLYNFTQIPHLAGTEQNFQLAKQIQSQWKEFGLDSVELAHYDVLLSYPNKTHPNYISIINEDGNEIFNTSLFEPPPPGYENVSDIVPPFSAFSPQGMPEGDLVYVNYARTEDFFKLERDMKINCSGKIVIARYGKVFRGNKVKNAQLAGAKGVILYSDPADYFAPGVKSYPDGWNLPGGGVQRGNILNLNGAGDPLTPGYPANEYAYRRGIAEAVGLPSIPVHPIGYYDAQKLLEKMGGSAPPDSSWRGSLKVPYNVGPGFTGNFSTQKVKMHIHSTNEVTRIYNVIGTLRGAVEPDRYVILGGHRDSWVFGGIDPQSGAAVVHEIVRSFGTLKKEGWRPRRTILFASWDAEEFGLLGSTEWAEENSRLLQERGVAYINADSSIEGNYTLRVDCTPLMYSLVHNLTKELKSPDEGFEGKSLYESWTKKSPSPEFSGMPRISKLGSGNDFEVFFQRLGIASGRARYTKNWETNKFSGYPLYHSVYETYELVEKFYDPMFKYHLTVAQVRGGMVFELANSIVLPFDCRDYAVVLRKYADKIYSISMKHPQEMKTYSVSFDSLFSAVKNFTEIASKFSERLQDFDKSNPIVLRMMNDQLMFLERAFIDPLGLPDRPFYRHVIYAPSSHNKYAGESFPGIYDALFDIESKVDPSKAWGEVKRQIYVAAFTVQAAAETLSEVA
The data set can be described thus: PSMA affinity (IC50), competition with [125I]I-BA-KuE on LNCaP cells. In kind it is binding. The conditions noted are these: natLu complex, on ice 60 min, read-out: IC50. How it is done: A mixture of trypsin and EDTA (0.05%, 0.02%) in PBS (Biochrom) was used in order to harvest cells. Cells were counted with a Neubauer hemocytometer (Paul Marienfeld, Lauda-Königshofen, Germany).
Affinity Determinations (IC50)
In the case of metal-complexed ligands, the crude reaction mixture was diluted analogously, without further purification. Cells were harvested 24±2 hours prior to the experiment and seeded in 24-well plates (1.5×10^5 cells in 1 mL/well). […] The media of both steps were combined in one fraction and represent the amount of free radioligand. Afterwards, the cells were lysed with 250 μL of 1 M aqueous NaOH for at least 10 min. After a washing step (250 μL of 1 M NaOH), both fractions, representing the amount of bound ligand, were united. Quantification of all collected fractions was accomplished in a γ-counter. PSMA-affinity determinations were carried out at least three times per ligand.

Data set [4] concerns LNCaP cells. Kind of data set: Internalization studies in LNCaP cells. In kind it is cell-based. As to conditions: 37° C., 60 min. How it is done:
PSMA-positive LNCAP cells (300265; Cell Lines Service, Eppelheim, Germany) were cultivated in Dulbecco modified Eagle medium/Nutrition Mixture F-12 with Glutamax (1:1) (DMEM-F12, Biochrom, Berlin, Germany) supplemented with fetal bovine serum (10%, FBS Zellkultur, Berlin, Germany) and kept at 37° C. in a humidified CO2 atmosphere (5%). A mixture of trypsin and EDTA (0.05%, 0.02%) in PBS (Biochrom) was used in order to harvest cells. Cells were counted with a Neubauer hemocytometer (Paul Marienfeld, Lauda-Königshofen, Germany).
For internalization studies, LNCaP cells were harvested 24±2 hours before the experiment and seeded in poly-L-lysine coated 24-well plates (1.25×10^5 cells in 1 mL/well, Greiner Bio-One, Kremsmünster, Austria). After removal of the culture medium, the cells were washed once with 500 μL DMEM-F12 (5% BSA) and left to equilibrate for at least 15 min at 37° C. in […] DMEM-F12 (5% BSA). Each well was treated with either 25 μL of either DMEM-F12 (5% BSA, control) or 25 μL of a 100 μM PMPA (2-(Phosphonomethyl)-pentandioic acid, Tocris Bioscience, Bristol, UK) solution in PBS, for blockade. Next, 25 μL of the radioactive-labelled PSMA inhibitor (10.0 nM in DMEM-F12 (5% BSA)) was added and the cells were incubated at 37° C. for 60 min. The experiment was terminated by placing the 24-well plate on ice for 3 min and consecutive removal of the medium. Each well was carefully washed with 250 μL of ice-cold HBSS. Both fractions from the first steps, representing the amount of free radioligand, were combined. Removal of surface bound activity was accomplished by incubation of the cells with 250 μL of ice-cold PMPA (10 μM in PBS) solution for 5 min and rinsed again with another 250 μL of ice-cold PBS. The internalized activity was determined by incubation of the cells in 250 μL […] aqueous NaOH for at least 10 min. The obtained fractions were combined with those of the subsequent wash step with 250 μL 1 M aqueous NaOH. Each experiment (control and blockade) was performed in triplicate. Free, surface bound and internalized activity was quantified in a y-counter. All internalization studies were accompanied by external reference studies, using ([^125I]I-BA)KuE (c=0.2 nM), which were performed analogously. Data were corrected for non-specific binding and normalized to the specific-internalization observed for the radioiodinated reference compound.

For data set [5], the target named is T2, Human Serum Albumin (HSA) (Homo sapiens, UniProt P02768).
T2 construct: purchased Daicel H13H-2433
T2 sequence (P02768 25-609): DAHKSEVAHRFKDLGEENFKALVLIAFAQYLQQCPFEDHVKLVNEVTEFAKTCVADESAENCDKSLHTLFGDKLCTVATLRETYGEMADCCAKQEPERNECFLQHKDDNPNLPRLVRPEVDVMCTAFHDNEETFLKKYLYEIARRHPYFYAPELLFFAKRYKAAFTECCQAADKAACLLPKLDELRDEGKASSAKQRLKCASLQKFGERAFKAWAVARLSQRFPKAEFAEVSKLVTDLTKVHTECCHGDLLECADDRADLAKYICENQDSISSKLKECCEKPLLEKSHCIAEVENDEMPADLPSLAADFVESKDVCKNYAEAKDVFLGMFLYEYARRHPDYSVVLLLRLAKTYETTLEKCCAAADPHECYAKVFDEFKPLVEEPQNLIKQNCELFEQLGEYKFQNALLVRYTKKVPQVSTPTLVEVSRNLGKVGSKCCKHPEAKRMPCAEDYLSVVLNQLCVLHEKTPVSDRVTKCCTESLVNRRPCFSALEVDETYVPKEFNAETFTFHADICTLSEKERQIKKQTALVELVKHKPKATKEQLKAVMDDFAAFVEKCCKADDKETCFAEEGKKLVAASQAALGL
Kind of data set: Human serum albumin (HSA) binding by high performance affinity chromatography (HPAC). It is filed as in vitro ADME. As to conditions: Chiralpak HSA column. How it is done: Determination of Human Serum Albumin (HSA) Binding by High Performance Affinity Chromatography (HPAC)
HSA binding of the PSMA-addressing ligands was determined according to a previously published procedure via HPLC (Valko, K.; Nunhuck, S.; Bevan, C.; Abraham, M. H.; Reynolds, D. P. Journal of pharmaceutical sciences 2003, 92, 2236-2248). A Chiralpak HSA column (50×3 mm, 5 μm, H13H-2433, Daicel, Tokyo, Japan) was used at a constant flow rate of 0.5 mL/min at rt. Mobile phase A was a freshly prepared 50 mM aqueous solution of NH4OAc (pH 6.9) and mobile phase B was isopropanol (HPLC grade, VWR). The applied gradient for all experiments was 100% A (0 to 3 min), followed by 80% A (3 to 40 min). Prior to the experiment, the column was calibrated using nine reference substances with a HSA binding, known from literature, in the range of 13 to 99% (Valko, K.; Nunhuck, S.; Bevan, C.; Abraham, M. H.; Reynolds, D. P. Journal of pharmaceutical sciences 2003, 92, 2236-2248; Yamazaki, K.; Kanaoka, M. Journal of Pharmaceutical sciences 2004, 93, 1480-1494). All substances, including the examined PSMA ligands, were dissolved in a 1:1 mixture (v/v) of isopropanol and a 50 mM aqueous solution of NH4OAc (pH6.9) with a final concentration of 0.5 mg/mL. Non-linear regression was established with the OriginPro 2016G software (Northampton, United States) (FIG. 8).

Data set [6] is described as follows: Apparent molecular weight (MWapp).
For data set [7], the system named is LNCaP tumor-bearing male CB-17 SCID mice. Kind of data set: Biodistribution studies 24 h p.i.
Method: Approximately 3-7 MBq (0.1-0.2 nmol) of the radioactive-labelled PSMA inhibitors were injected into the tail vein of LNCaP tumor-bearing male CB-17 SCID mice and sacrificed after 24 h post injection. Selected organs were removed, weighted and measured in a γ-counter. Results are all decay corrected and given in % injected dose per gram of tissue (% iD/g). Tumor-to-organ ratios are calculated from animals' individual ratios and are given as mean±standard deviation.

SIFA-Asn(AcNH-β-Glc)-Tyr^3 -octreotate: the “log P(ow)” value in data set [1] is recorded as 1.23.
As for “SIFA-Asn(AcNH-β-Glc)-PEG-Tyr^3 -octreotate”, the “log P(ow)” value in data set [1] is given as 0.96.
Broadly, the IC50 is the midpoint of a concentration-inhibition curve. In data set [2], `CC(C)(C)[Si](F)(c1ccc(C(=O)NC[C@@H](NC(=O)[C@@H](CCCNC(N)=O)NC(=O)CC[C@@H](C(=O)O)N2CCN(CC(=O)O)CCN(CC(=O)O)CCN(CC(=O)O)CC2)C(=O)NCCCCCC(=O)NCCC[C@@H](NC(=O)CC[C@H](NC(=O)N[C@@H](CCC(=O)O)C(=O)O)C(=O)O)C(=O)O)cc1)C(C)(C)C` [Compound 2C014] showed a logD7.4 of −3.37 ± 0.10. The IC50 in data set [3] stood at 3.95 ± 1.36 nM. Also, the Internalization in data set [4] (normalized to reference) is 235 ± 20 % IBA. For the same compound, the “HSA (HPAC)” value in data set [5] was 94.6%. Further, in data set [6], the MWapp is reported as 19.2 kDa. In data set [7] (Table 6), the “In vivo biodistribution (24 h p.i.) blood” value was 0.0014 ± 0.0006 % iA/g, the “In vivo biodistribution (24 h p.i.) kidney” value is recorded as 2.77 ± 0.84 % iA/g and the “In vivo biodistribution (24 h p.i.) tumor” value stood at 16.54 ± 3.37 % iA/g. In data set [7] (mean), this compound returned an uptake in adrenals of 0.1473 % iD/g, an uptake in blood of 0.0014 % iD/g, an uptake in bone of 0.0327 % iD/g and an uptake in heart of 0.0245 % iD/g. For the same compound, in data set [7] (mean), the uptake in intestine is on record as 0.1006 % iD/g, the uptake in kidney worked out at 2.7708 % iD/g, the uptake in liver was 0.2376 % iD/g and the uptake in lung was found to be 0.0654 % iD/g. Moreover, in data set [7] (mean), the uptake in muscle amounted to 0.0107 % iD/g, the uptake in pancreas is on record as 0.0192 % iD/g, the “uptake in parotid gl.” value is listed as 0.09 % iD/g and the uptake in spleen is 0.4296 % iD/g. In data set [7] (mean), the uptake in stomach was found to be 0.0367 % iD/g, the “uptake in submand. gl.” value is listed as 0.0555 % iD/g and the uptake in tumor is 16.5415 % iD/g.
On to `CC(C)(C)[Si](F)(c1ccc(C(=O)NC[C@@H](NC(=O)CC[C@@H](C(=O)O)N2CCN(CC(=O)O)CCN(CC(=O)O)CCN(CC(=O)O)CC2)C(=O)N[C@H](CCCCNC(=O)CCC(=O)NCCC[C@@H](NC(=O)CC[C@H](NC(=O)N[C@@H](CCC(=O)O)C(=O)O)C(=O)O)C(=O)O)C(=O)O)cc1)C(C)(C)C` [rhPSMA-7.3, reference compound], for which the logD7.4 in data set [2] is −4.12 ± 0.11^. Besides, the IC50 in data set [3] is 3.29 ± 1 nM. In addition, the Internalization in data set [4] (normalized to ([125I]I-BA)KuE) is 184 ± 12 % IBA-KuE. Further, the “HSA (HPAC)” value in data set [5] amounted to 98.6%. Moreover, the MWapp in data set [6] amounted to 30.4 kDa. In addition, in data set [7] (Table 1), the “Kidneys (24 h)” value was 1.4 ± 0.4 % iD/g and the “Tumor (24 h)” value came to 7.5 ± 0.9 % iD/g. In addition, the T/K-ratio in data set [7] (tumor/kidney, Table 1) came out at 5.17.
